What is called IC50 is the midpoint of a concentration-inhibition curve.

Assay [1] concerns the target T1, Human immunodeficiency virus type 1 reverse transcriptase (Human immunodeficiency virus 1, UniProt Q72547). As to the kind of experiment: Inhibition of HIV1 RT mediated DNA-dependent DNA polymerization using chimeric substrate with RNA PPT primer.
A short description of assay [2]: Inhibition of HIV1 RT D443N mutant mediated DNA-dependent DNA polymerization using chimeric substrate with RNA PPT primer extended at 3' end with upto 9 deoxyribonucleotides. Also on record: species or system Human immunodeficiency virus 1.
The nature of assay [3]: Inhibition of HIV1 RT D443N mutant mediated DNA-dependent DNA polymerization using chimeric substrate with RNA PPT primer extended at 3' end with upto 3 deoxyribonucleotides. Details: species or system Human immunodeficiency virus 1.
The target in assay [4] is T1, Human immunodeficiency virus type 1 reverse transcriptase. As to the kind of experiment: Inhibition of HIV1 RT mediated DNA-dependent DNA synthesis initiation using RNA PPT primed substrate by scintillation proximity assay.
For assay [5], the target named is T2, Human immunodeficiency virus type 1 reverse transcriptase (Human immunodeficiency virus 1, UniProt Q72547, Y181C). The assay can be described thus: Inhibition of HIV1 RT Y181C mutant mediated DNA-dependent DNA polymerization using DNA PPT primed substrate by scintillation proximity assay. A general note: Scintillation proximity formats need no separation of bound from free tracer.

Assay [6] has as its target T1, Human immunodeficiency virus type 1 reverse transcriptase. As to the kind of experiment: Inhibition of HIV1 RT mediated DNA-dependent DNA polymerization using chimeric substrate with RNA PPT primer extended at 3' end with upto 12 deoxyribonucleotides.
For assay [7] the target is unchanged. The assay can be described thus: Inhibition of HIV1 RT mediated DNA-dependent plus-strand DNA polymerization after 5 mins by gel-based assay.
The target is the same in assay [8]. As to the kind of experiment: Inhibition of HIV1 RT mediated RNA-dependent minus-strand DNA synthesis after 5 mins by gel-based assay.
Assay [9] deals with T3, Human immunodeficiency virus type 1 reverse transcriptase (Human immunodeficiency virus 1, UniProt Q72547, K103N). The assay can be described thus: Inhibition of HIV1 RT K103N mutant mediated DNA-dependent DNA polymerization using RNA PPT primed substrate by scintillation proximity assay.
Assay [10] concerns the target T1, Human immunodeficiency virus type 1 reverse transcriptase. The assay can be described thus: Inhibition of HIV1 RT mediated DNA-dependent DNA polymerization using chimeric substrate with RNA PPT primer extended at 3' end with upto 2 deoxyribonucleotides.
For assay [11] the target is unchanged. As to the kind of experiment: Inhibition of HIV1 RT mediated DNA-dependent DNA polymerization using chimeric substrate with RNA PPT primer extended at 3' end with upto 9 deoxyribonucleotides.
Assay [12] in a line: Inhibition of HIV1 RT D443N mutant mediated DNA-dependent DNA polymerization using chimeric substrate with RNA PPT primer extended at 3' end with upto one deoxyribonucleotide. Also on record: species or system Human immunodeficiency virus 1.
Assay [13] is described as follows: Inhibition of HIV1 RT D443N mutant mediated DNA-dependent DNA polymerization using chimeric substrate with RNA PPT primer extended at 3' end with upto 2 deoxyribonucleotides. Also on record: species or system Human immunodeficiency virus 1.
Assay [14] deals with T2, Human immunodeficiency virus type 1 reverse transcriptase. The assay can be described thus: Inhibition of HIV1 RT Y181C mutant mediated DNA-dependent DNA polymerization using RNA/DNAM duplex primed substrate by scintillation proximity assay.
The target is the same in assay [15]. As to the kind of experiment: Inhibition of HIV1 RT Y181C mutant mediated DNA-dependent DNA polymerization using RNA PPT primed substrate by scintillation proximity assay.
Assay [16] in a line: Inhibition of HIV1 RT D443N mutant mediated DNA-dependent DNA polymerization using chimeric substrate with RNA PPT primer extended at 3' end with upto 6 deoxyribonucleotides. Details: species or system Human immunodeficiency virus 1.
Assay [17] concerns Human immunodeficiency virus 1. As to the kind of experiment: Inhibition of HIV1 RT D443N mutant mediated DNA-dependent DNA polymerization.
Assay [18] has as its target T3, Human immunodeficiency virus type 1 reverse transcriptase. As to the kind of experiment: Inhibition of HIV1 RT K103N mutant mediated DNA-dependent DNA polymerization using RNA/DNAM duplex primed substrate by scintillation proximity assay.
In assay [19] the target is T1, Human immunodeficiency virus type 1 reverse transcriptase. As to the kind of experiment: Inhibition of HIV1 RT mediated DNA-dependent DNA synthesis initiation using DNA PPT-primed substrate.
For assay [20], the target named is T3, Human immunodeficiency virus type 1 reverse transcriptase. The assay can be described thus: Inhibition of HIV1 RT K103N mutant mediated DNA-dependent DNA polymerization using DNA PPT primed substrate by scintillation proximity assay.
The target in assay [21] is T1, Human immunodeficiency virus type 1 reverse transcriptase. As to the kind of experiment: Inhibition of HIV1 RT mediated DNA-dependent DNA polymerization using chimeric substrate with RNA PPT primer extended at 3' end with upto 3 deoxyribonucleotides.
For assay [22] the target is unchanged. The assay can be described thus: Inhibition of HIV1 RT mediated DNA-dependent DNA polymerization.
Assay [23] can be described thus: Inhibition of HIV1 RT D443N mutant mediated DNA-dependent DNA polymerization using chimeric substrate with RNA PPT primer extended at 3' end with upto 12 deoxyribonucleotides. Details: species or system Human immunodeficiency virus 1.
In assay [24] the target is T1, Human immunodeficiency virus type 1 reverse transcriptase. As to the kind of experiment: Inhibition of HIV1 RT mediated DNA-dependent DNA polymerization using chimeric substrate with RNA PPT primer extended at 3' end with upto one deoxyribonucleotide.
The target is the same in assay [25]. As to the kind of experiment: Inhibition of HIV1 RT mediated DNA-dependent DNA synthesis initiation using RNA/DNAM duplex primed substrate by scintillation proximity assay.
Assay [26] in a line: Inhibition of HIV1 RT D443N mutant mediated DNA-dependent DNA polymerization using chimeric substrate with RNA PPT primer. Details: species or system Human immunodeficiency virus 1.

The source made the active and inactive calls. No cut-off for these calls is given here.

Consider `CCc1cc(NCc2nc3c(Cl)ccc(Cl)c3o2)c(O)nc1C` [L-697661], for which the IC50 in assay [1] is 280 nM; in assay [2], 130 nM; in [3], 240 nM; in assay [4] it was 430 nM; in [5] it was over 5000 nM; in assay [6], 130 nM. The half-maximal inhibitory concentration (IC50) in assay [7] is 35 nM; in [8], 1400 nM; in assay [9] it was over 5000 nM; in assay [10], 280 nM; in [11] it was 320 nM; in assay [12], 240 nM. The IC50 in assay [13] is 230 nM; in assay [14], over 5000 nM; in assay [15], over 5000 nM; in assay [16], 270 nM; in assay [18], over 5000 nM; in [19] it was over 10000 nM. Also, the IC50 was over 5000 nM in assay [20]; 270 nM in assay [21]; 290 nM in [22]; 150 nM in assay [23]; 220 nM in assay [24]; 230 nM in assay [25]. Besides, in assay [26], the half-maximal inhibitory concentration (IC50) was found to be 440 nM. Besides, the outcome in assay [17] was inactive.

With `Cc1cn([C@H]2C[C@H](N=[N+]=[N-])[C@@H](CO[P@](=O)(O)O[P@](=O)(O)OP(=O)(O)O)O2)c(=O)[nH]c1=O` [ZIDOVUDINE TRIPHOSPHATE], the values for the half-maximal inhibitory concentration (IC50) in assay [4] and in assay [25] were 320 nM and 360 nM, respectively.

The values above are taken from ChEMBL document CHEMBL1156428 (J Biol Chem, 2007).
